Converted amounts (≈) assume the structure as drawn.
Columns and labels:
[1] = system: PC-3; assay: Cytotoxicity against human PC3 cells assessed as reduction in cell viability incubated for 96 hrs by MTT assay; type: cell-based; settings: PC-3, 96 h
[2] = system: MCF-10A; assay: Cytotoxicity against human MCF-10A cells assessed as reduction in cell viability incubated for 96 hrs by MTT assay; type: cell-based
[3] = system: HL-60; assay: Cytotoxicity against human HL-60 cells assessed as reduction in cell viability incubated for 96 hrs by MTT assay; type: cell-based; settings: HL-60, 96 h
[4] = system: MDA-MB-231; assay: Cytotoxicity against human MDA-MB-231 cells assessed as reduction in cell viability incubated for 96 hrs by MTT assay; settings: MDA-MB-231, 96 h
[5] = system: [Candida] zeylanoides; assay: Antifungal activity against Candida zeylanoides CMGCC2.3739 measured after 24 hrs by broth microdilution assay; type: functional; settings: Dujonia zeylanoides
[6] = system: Candida albicans; assay: Antifungal activity against fluconazole-resistant Candida albicans 904 assessed as inhibition of microbial growth after 24 hrs by broth microdilution method; type: functional
[7] = system: Aspergillus fumigatus; assay: Antifungal activity against Aspergillus fumigatus CMGCC3.7795 measured after 72 hrs by broth microdilution assay; type: functional
[8] = system: Cryptococcus neoformans; assay: Antifungal activity against Cryptococcus neoformans CMGCC2.3161 measured after 72 hrs by broth microdilution assay; type: functional
[9] = system: Candida albicans; assay: Antifungal activity against Candida albicans ATCC SC5314 measured after 24 hrs by broth microdilution assay; type: functional
[10] = system: Candida albicans; assay: Antifungal activity against Candida albicans CPCC400616 measured after 24 hrs by broth microdilution assay; type: functional
[11] = system: Candida albicans; assay: Potency index, ratio of fluconazole MIC to test compound MIC for Candida albicans CPCC400616 measured after 24 hrs by broth microdilution assay; type: functional
[12] = system: Candida albicans; assay: Antifungal activity against fluconazole-resistant Candida albicans CaR assessed as inhibition of microbial growth after 24 hrs by broth microdilution method; type: functional
[13] = system: Candida parapsilosis; assay: Antifungal activity against Candida parapsilosis ATCC 22019 measured after 24 hrs by broth microdilution assay; type: functional; settings: Lodderomyces parapsilosis
[14] = system: Candida albicans; assay: Antifungal activity against fluconazole-resistant Candida albicans 901 assessed as inhibition of microbial growth after 24 hrs by broth microdilution method; type: functional
[15] = system: Candida albicans; assay: Antifungal activity against fluconazole-resistant Candida albicans 632 assessed as inhibition of microbial growth after 24 hrs by broth microdilution method; type: functional
[16] = system: Pichia kudriavzevii; assay: Antifungal activity against Candida krusei AS2.1045 measured after 24 hrs by broth microdilution assay; type: functional
[17] = system: Nakaseomyces glabratus; assay: Antifungal activity against Candida glabrata measured after 24 hrs by broth microdilution assay; type: functional
[18] = system: Candida albicans; assay: Antifungal activity against fluconazole-resistant Candida albicans 17# assessed as inhibition of microbial growth after 24 hrs by broth microdilution method; type: functional
[19] = Hemolytic activity in rabbit RBC assessed as hemolysis ratio at 8 ug/ml measured after 3 hrs by microplate reader assay relative to control; type: ADME, cell-based, Oryctolagus cuniculus, Erythrocyte; settings: rabbit red blood cells (erythrocytes), at 8 µg/mL, read-out: Activity
[20] = Hemolytic activity in rabbit RBC assessed as hemolysis ratio at 2 ug/ml measured after 3 hrs by microplate reader assay relative to control; type: ADME, cell-based, Oryctolagus cuniculus, Erythrocyte; settings: rabbit red blood cells (erythrocytes), at 2 µg/mL, read-out: Activity
[21] = Hemolytic activity in rabbit RBC assessed as hemolysis ratio at 4 ug/ml measured after 3 hrs by microplate reader assay relative to control; type: ADME, cell-based, Oryctolagus cuniculus, Erythrocyte; settings: rabbit red blood cells (erythrocytes), at 4 µg/mL, read-out: Activity
[22] = Hemolytic activity in rabbit RBC assessed as hemolysis ratio at 16 ug/ml measured after 3 hrs by microplate reader assay relative to control; type: ADME, cell-based, Oryctolagus cuniculus, Erythrocyte; settings: rabbit red blood cells (erythrocytes), at 16 µg/mL, read-out: Activity
[23] = Hemolytic activity in rabbit RBC assessed as hemolysis ratio at 1 ug/ml measured after 3 hrs by microplate reader assay relative to control; type: ADME, cell-based, Oryctolagus cuniculus, Erythrocyte; settings: rabbit red blood cells (erythrocytes), at 1 µg/mL, read-out: Activity

| Compound | MIC [5] | MIC [6] | MIC [7] | MIC [8] | MIC [9] | MIC [10] | Ratio [11] | MIC [12] | MIC [13] | MIC [14] | MIC [15] | MIC [16] | MIC [17] | MIC [18] | other results |
| --- | --- | --- | --- | --- | --- | --- | --- | --- | --- | --- | --- | --- | --- | --- | --- |
| COc1cccc2c1C(=O)c1c(O)c3c(c(O)c1C2=O)C[C@@](O)(C(=O)CO)C[C@@H]3O[C@H]1C[C@H](N)[C@H](O)[C@H](C)O1 [DOXORUBICIN] | – | – | – | – | – | – | – | – | – | – | – | – | – | – | IC50 [1]: 0.64 µM; IC50 [2]: 2.64 µM; IC50 [3]: < 0.125 µM |
| CC(=O)O[C@H]1C(=O)[C@@]2(C)[C@H]([C@H](OC(=O)c3ccccc3)[C@]3(O)C[C@H](OC(=O)[C@H](O)[C@@H](NC(=O)c4ccccc4)c4ccccc4)C(C)=C1C3(C)C)[C@]1(OC(C)=O)CO[C@@H]1C[C@@H]2O [PACLITAXEL] | – | – | – | – | – | – | – | – | – | – | – | – | – | – | IC50 [4]: < 0.001 µM; IC50 ([1]; read-out: IC50): < 0.025 µM |
| Cc1ccccc1[Se]C(Cn1ccnc1)c1ccc(F)cc1F (stereo not drawn) | 0.5 µg/mL (≈ 1.33 µM) | 1 µg/mL | 8 µg/mL (≈ 21.2 µM) | 0.5 µg/mL (≈ 1.33 µM) | 0.02 µg/mL (≈ 0.053 µM) | 0.13 µg/mL (≈ 0.345 µM) | 8 | 8 µg/mL | 0.13 µg/mL (≈ 0.345 µM) | 2 µg/mL | 4 µg/mL | 0.02 µg/mL (≈ 0.053 µM) | 1 µg/mL (≈ 2.65 µM) | 4 µg/mL | – |
| Cc1ccc([Se]C(Cn2ccnc2)c2ccc(Cl)cc2Cl)cc1 (stereo not drawn) | 0.25 µg/mL (≈ 0.609 µM) | 16 µg/mL | 8 µg/mL (≈ 19.5 µM) | 0.13 µg/mL (≈ 0.317 µM) | 0.03 µg/mL (≈ 0.0731 µM) | 0.25 µg/mL (≈ 0.609 µM) | 8 | 32 µg/mL | 0.5 µg/mL (≈ 1.22 µM) | 8 µg/mL | 4 µg/mL | 0.5 µg/mL (≈ 1.22 µM) | 0.25 µg/mL (≈ 0.609 µM) | 4 µg/mL | – |
| Cc1cccc(C)c1[Se]C(Cn1ccnc1)c1ccc(Cl)cc1Cl (stereo not drawn) | 4 µg/mL (≈ 9.43 µM) | 8 µg/mL | 8 µg/mL (≈ 18.9 µM) | 0.5 µg/mL (≈ 1.18 µM) | 0.06 µg/mL (≈ 0.141 µM) | 0.13 µg/mL (≈ 0.306 µM) | 8 | 4 µg/mL | 0.5 µg/mL (≈ 1.18 µM) | 16 µg/mL | 8 µg/mL | 2 µg/mL (≈ 4.71 µM) | 0.13 µg/mL (≈ 0.306 µM) | 4 µg/mL | – |
| Cc1cc(C)cc([Se]C(Cn2ccnc2)c2ccc(Cl)cc2Cl)c1 (stereo not drawn) | 0.5 µg/mL (≈ 1.18 µM) | 16 µg/mL | 8 µg/mL (≈ 18.9 µM) | 0.5 µg/mL (≈ 1.18 µM) | 0.06 µg/mL (≈ 0.141 µM) | 0.5 µg/mL (≈ 1.18 µM) | 8 | 8 µg/mL | 0.5 µg/mL (≈ 1.18 µM) | 4 µg/mL | 16 µg/mL | 0.5 µg/mL (≈ 1.18 µM) | 0.25 µg/mL (≈ 0.589 µM) | 16 µg/mL | – |
| Cc1ccc(C)c([Se]C(Cn2ccnc2)c2ccc(Cl)cc2Cl)c1 (stereo not drawn) | 2 µg/mL (≈ 4.71 µM) | 0.25 µg/mL | 16 µg/mL (≈ 37.7 µM) | 0.5 µg/mL (≈ 1.18 µM) | 0.03 µg/mL (≈ 0.0707 µM) | 0.25 µg/mL (≈ 0.589 µM) | 8 | 0.25 µg/mL | 0.5 µg/mL (≈ 1.18 µM) | 0.25 µg/mL | 0.5 µg/mL | 0.5 µg/mL (≈ 1.18 µM) | 0.5 µg/mL (≈ 1.18 µM) | 0.13 µg/mL | IC50 [4]: 6.61 µM; hemolysis at 3 h, 8 ug/ml [19]: 100%; IC50 ([1]; read-out: IC50): 7.25 µM; hemolysis at 3 h, 2 ug/ml [20]: 0.89%; hemolysis at 3 h, 4 ug/ml [21]: 84.4%; IC50 ([2]; read-out: IC50): 27.2 µM; IC50 [3]: 6.95 µM; hemolysis at 3 h, 16 ug/ml [22]: 100%; hemolysis at 3 h, 1 ug/ml [23]: 0% |
| COc1ccccc1[Se]C(Cn1ccnc1)c1ccc(Cl)cc1Cl (stereo not drawn) | 0.25 µg/mL (≈ 0.587 µM) | 8 µg/mL | 8 µg/mL (≈ 18.8 µM) | 0.5 µg/mL (≈ 1.17 µM) | 0.03 µg/mL (≈ 0.0704 µM) | 0.06 µg/mL (≈ 0.141 µM) | 8 | 2 µg/mL | 0.13 µg/mL (≈ 0.305 µM) | 1 µg/mL | 2 µg/mL | 0.13 µg/mL (≈ 0.305 µM) | 0.5 µg/mL (≈ 1.17 µM) | 2 µg/mL | – |
